Reference: US12589122B2, “Methods and compositions for treating infectious, autoimmune, and allergic disease” (The University of Chicago, priority 2018, dated 2026)
“Also recorded” adds a separate entry of the source.

Columns and labels:
[1] = system: A. caccae_lah; experiment: In vitro fermentation in PY broth, monoculture butyrate production (HPLC-UV-Vis); assay type: cell-based, Anaerostipes caccae; conditions: for butyrate production by A. caccae_lah: monoculture, PY broth supplemented with 10 mg/ml carbohydrates, 48 h; for lactate or acetate in the media at 48 h: A. caccae_lah monoculture, Nutramigen plus 40 mM lactate+33 mM acetate
Procedure: (§1) This method of preculture is used for all future in vitro fermentation experiments. Then 10 μl of preculture was transferred into 7 mL minimal peptone yeast (PY) broth alone or supplemented with 10 mg/ml of glucose, sucrose, lactose, cellobiose, or potato starch. All of these variations of PY were pre-reduced anaerobically prepared by Anaerobe Systems. Growth and butyrate production were measured after 48 h. […] Butyrate in solution is quantified by HPLC-UV-Vis as described in reference 61 and 62. […] These simple sugars are similar to those found in infant formula. […] These are the same formulas consumed by the healthy (Enfamil®) and CMA (Nutramigen®) infant donors and are also consumed by all mice colonized with these respective microbiomes. […] All groups were analyzed by one way ANOVA. *P<0.05, **P<0.01, ***P<0.001, ****P<0.0001 versus PY.
(§2) Other groups have shown that primary degraders, namely Bacteroides species, break down complex fibers and produce metabolites lactate and acetate which Clostridia species can then consume to produce butyrate (59). […] Growth and butyrate production were measured after 48 h. […] All groups were analyzed by one way ANOVA. *P<0.05, **P<0.01, ***P<0.001, ****P<0.0001 versus PY alone.

[2] = system: A. caccae_lah; experiment: In vitro fermentation in PY broth, monoculture growth (OD600); assay type: cell-based, Anaerostipes caccae; conditions: 48 h; for Growth of A. caccae_lah / Growth of A. caccae_lah (OD600): monoculture; for Growth of A. caccae_lah: PY broth supplemented with 33 mM acetate and/or 40 mM lactate; for Growth of A. caccae_lah (OD600): PY broth supplemented with 10 mg/ml carbohydrates
Procedure: as §1, §2

[3] = system: BLG plus CT sensitized mice, anaphylactic response to BLG challenge; assay type: in vivo, C3H/HeN mice
[4] = system: BLG-specific IgE; experiment: Serum BLG-specific IgE ELISA after challenge; assay type: in vivo, mouse; conditions: A. caccae monocolonized vs CMA colonized mice
Source text: (§3) Food allergen sensitization and challenge. Protocols were adapted from reference 7. All mice were weaned onto a plant-based mouse chow (Purina Lab Diet® 5K67) at 3 weeks of age. GF mice received autoclaved sterile water. For mice colonized with feces from infant donors, or monocolonized with A. caccae, the drinking water was replaced by formula four hours prior to colonization. Mice colonized with healthy feces or A. caccae received Enfamil®; CMA colonized mice received Nutramigen® (both from Mead Johnson). On day 0, one week post weaning (GF) or colonization (healthy/A. caccae/CMA), all mice were fasted for 4 hours and then given a gavage of 200 mM sodium bicarbonate. 30 minutes later, mice were given 20 mg BLG (Sigma) plus 10 μg CT (List Biologicals). This protocol was repeated weekly for 5 weeks. For formula-fed mice, formula was replaced by sterile water for the week after the last sensitization. Prior to challenge on day 42, mice were fasted for 4 hours and given sodium bicarbonate by gavage. Two doses of 100 mg BLG each were then administered via intragastric gavage 30 minutes apart. Core body temperature was measured in a blinded fashion prior to allergen challenge and every 5 minutes after the first challenge until at least 30 minutes after the second challenge using a rectal probe (PhysiTemp). Serum was collected 1 hour after the second challenge to measure mMCPT-1 levels.

[5] = system: BLG-specific IgG1; experiment: Serum BLG-specific IgG1 ELISA after challenge; assay type: in vivo, mouse; conditions: A. caccae monocolonized vs CMA colonized mice
Source text: as §3

[6] = system: mMCPT-1; experiment: Serum mMCPT-1 ELISA 1 hour after second challenge; assay type: in vivo, mouse; conditions: A. caccae monocolonized compared to CMA colonized mice
Source text: as §3

[7] = system: IL-13; experiment: Splenocyte cytokine ELISA after BLG stimulation (IL-13); assay type: cell-based, mouse; conditions: sacrificed 24 h post challenge, stimulated 72 h with BLG; A. caccae vs CMA colonized
Procedure: (§4) For cytokine analysis spleens were harvested 24 h post challenge from A. caccae or CMA colonized mice sensitized with BLG+CT for 5 weeks. Splenocytes were stimulated at a concentration of 2×10^6 cells/ml at 37° C., 10% CO2 with 10 mg/ml BLG (Sigma) in cDMEM (with 4% FCS (HyClone), 10 mM HEPES (Gibco), 100 U/ml Penicillin/Streptomycin (Gibco) and 55 μM 2-mercaptoethanol (Gibco). Cytokine concentrations in 72 hr culture supernatants were determined by ELISA for IL-13 and IL-4 (both from Invitrogen).

[8] = system: IL-4; experiment: Splenocyte cytokine ELISA after BLG stimulation (IL-4); assay type: cell-based, mouse; conditions: sacrificed 24 h post challenge, stimulated 72 h with BLG; A. caccae vs CMA colonized
Procedure: as §4

[9] = system: Ror2, Fbp1, Tgfbr3, Acot12 and Me1 in ileal IECs; experiment: qPCR gene expression in ileal IECs; assay type: in vivo, mouse; conditions: A. caccae monocolonized compared to GF or CMA-colonized mice
Procedure: Epithelial cell isolation. As in sensitization experiments, mice were weaned at 3 weeks of age and placed on infant formula prior to colonization. Seven days after colonization, mice were euthanized and ileum was removed. For IEC isolation, tissues were cleaned and inverted as described in ref (43). IECs were collected by inflating inverted tissue in Cell Recovery Solution (Corning) every 5 minutes for 30 minutes. IEC samples were lysed in TRIZol (ThermoFisher) and RNA was extracted with PureLink RNA Mini Kit (Ambion) plus on-column DNAse treatment (PureLink DNAse Set, Ambion).
qPCR. Gene expression was measured by qPCR as described in reference 7. In brief, cDNA was prepared from RNA using the iScript cDNA Synthesis kit (BioRad). Gene expression was measured with PowerUp SYBR green master mix (Applied Biosystems) according to the manufacturer's instructions. Primers are listed in Supplementary Table 7 (20, 50-54). Expression of genes of interest was normalized to Hprt. Relative expression was measured using ΔΔCt centered around the geometric mean; GF mice were used as a reference.

[10] = system: A. caccae_lah; experiment: Antibiotic susceptibility by growth inhibition around antibiotic discs; assay type: cell-based, Anaerostipes caccae; conditions: discs 10 μg ampicillin, 30 μg tetracycline; BHI agar, 37° C. anaerobic, six days
Procedure: Plates are incubated at 37° C. in anaerobic conditions for six days.

`O=C[C@H](O)[C@@H](O)[C@H](O[C@@H]1O[C@H](CO)[C@@H](O)[C@H](O)[C@H]1O)[C@H](O)CO` [cellobiose] was tested. Which “butyrate production by A. caccae_lah” value [1] did it give?
Its value is “not able to produce significant butyrate”.

How did the “Growth of A. caccae_lah” value [2] turn out when `CC(O)C(=O)O` (centres unmarked) [lactate] was run?
The value was “significant growth”.

What about the “lactate or acetate in the media at 48 h” value [1] of the same molecule?
The value was “no detectable”.

With `OC[C@H]1O[C@@](CO)(O[C@H]2O[C@H](CO)[C@@H](O)[C@H](O)[C@H]2O)[C@@H](O)[C@@H]1O` [sucrose] as the molecule, how does the “Growth of A. caccae_lah (OD600)” value [2] read?
Its value is “grew abundantly”.

What about the “butyrate production by A. caccae_lah” value [1] of the same molecule?
Its value is “produced the most butyrate”.

`CC(=O)O` [acetate] was tested. Which “Growth of A. caccae_lah” value [2] did it give?
Its value is “significant growth”.

What about the “lactate or acetate in the media at 48 h” value [1] of the same molecule?
The value was “no detectable”.

What does the source list for Anaerostipes caccae [A. caccae]?
changes in core body temperature after BLG challenge ([3]; A. caccae monocolonized compared to CMA colonized mice): significantly reduced; anaphylactic response to BLG challenge ([3]; BLG plus CT sensitized A. caccae monocolonized mice): protected against an anaphylactic response to BLG challenge; also recorded: protects against an allergic response to food; serum BLG-specific IgE [4]: reduced; serum BLG-specific IgG1 [5]: reduced; serum concentrations of mMCPT-1 [6]: significantly reduced; IL-13 in culture supernatants of splenocytes [7]: reduced; IL-4 in culture supernatants of splenocytes [8]: reduced; Fbp1 gene expression in ileal IECs (qPCR) [9]: significantly upregulated; Tgfbr3 gene expression in ileal IECs (qPCR) [9]: significantly upregulated

How did the “fermentation by A. caccae_lah in monoculture” value ([2]; minimal PY broth supplemented with 10 mg/ml carbohydrates) turn out when `OC[C@H]1O[C@@H](O[C@H]2[C@H](O)[C@@H](O)C(O)O[C@@H]2CO)[C@H](O)[C@@H](O)[C@H]1O` (some centres unmarked) [lactose] was run?
Its value is “can ferment”.

What about the “Growth of A. caccae_lah (OD600)” value [2] of the same molecule?
The value was “grew abundantly”.

And the “butyrate production by A. caccae_lah” value [1]?
The value was “produced the most butyrate”.

`CC1(C)S[C@@H]2[C@H](NC(=O)[C@H](N)c3ccccc3)C(=O)N2[C@H]1C(=O)O` [ampicillin] was tested. Which “antibiotic susceptibility of A. caccae_lah (zone of clearance)” value [10] did it give?
Its value is “highly susceptible”.
